According to US6994551B2, “Stable self-etching primer and adhesive bonding resin compositions, systems, and methods” (Bisco, Inc., priority 2002, dated 2006):
Where two headings read alike, the source gives them in different places.

Description: Several experiments were performed to evaluate the solubility of Bis-MEP in various solvent systems.

- appearance of mixture (0.67 weight percent in water): did not dissolve
- appearance of mixture (2 weight percent mixture in water): did not dissolve
- appearance of mixture (10 weight percent in water (no ethanol)): not homogeneous
- appearance of mixture (14.72 weight percent in ethanol 34.40 / water 50.88 weight percent, room temperature): clear solution
- appearance of mixture (20 weight percent in water (no ethanol)): not homogeneous
SMILES: C=C(C)C(=O)OCCOP(=O)(O)OCCOC(=O)C(=C)C [Bis-MEP, Bis-[2-(methacryloyloxy)ethyl]phosphate]
